Measurements as given in article PMC3389199 (Bioorganic & medicinal chemistry letters, 2012).
Marks after values point to notes of the source that are not given here.

Key:
cannabinoid receptors = conditions: cited from earlier work
hDAGLα [1] = molecular target: T1, hDAGLα (Homo sapiens, UniProt Q9Y4D2); assay: Radio-TLC assay of hDAGLα inhibition with [14C]SAG substrate; assay type: biochemical; conditions: for inhibition of hDAGLα activity at 10 μM (in words): radiolabeled substrate [14C]SAG
T1 sequence (Q9Y4D2 1-1042): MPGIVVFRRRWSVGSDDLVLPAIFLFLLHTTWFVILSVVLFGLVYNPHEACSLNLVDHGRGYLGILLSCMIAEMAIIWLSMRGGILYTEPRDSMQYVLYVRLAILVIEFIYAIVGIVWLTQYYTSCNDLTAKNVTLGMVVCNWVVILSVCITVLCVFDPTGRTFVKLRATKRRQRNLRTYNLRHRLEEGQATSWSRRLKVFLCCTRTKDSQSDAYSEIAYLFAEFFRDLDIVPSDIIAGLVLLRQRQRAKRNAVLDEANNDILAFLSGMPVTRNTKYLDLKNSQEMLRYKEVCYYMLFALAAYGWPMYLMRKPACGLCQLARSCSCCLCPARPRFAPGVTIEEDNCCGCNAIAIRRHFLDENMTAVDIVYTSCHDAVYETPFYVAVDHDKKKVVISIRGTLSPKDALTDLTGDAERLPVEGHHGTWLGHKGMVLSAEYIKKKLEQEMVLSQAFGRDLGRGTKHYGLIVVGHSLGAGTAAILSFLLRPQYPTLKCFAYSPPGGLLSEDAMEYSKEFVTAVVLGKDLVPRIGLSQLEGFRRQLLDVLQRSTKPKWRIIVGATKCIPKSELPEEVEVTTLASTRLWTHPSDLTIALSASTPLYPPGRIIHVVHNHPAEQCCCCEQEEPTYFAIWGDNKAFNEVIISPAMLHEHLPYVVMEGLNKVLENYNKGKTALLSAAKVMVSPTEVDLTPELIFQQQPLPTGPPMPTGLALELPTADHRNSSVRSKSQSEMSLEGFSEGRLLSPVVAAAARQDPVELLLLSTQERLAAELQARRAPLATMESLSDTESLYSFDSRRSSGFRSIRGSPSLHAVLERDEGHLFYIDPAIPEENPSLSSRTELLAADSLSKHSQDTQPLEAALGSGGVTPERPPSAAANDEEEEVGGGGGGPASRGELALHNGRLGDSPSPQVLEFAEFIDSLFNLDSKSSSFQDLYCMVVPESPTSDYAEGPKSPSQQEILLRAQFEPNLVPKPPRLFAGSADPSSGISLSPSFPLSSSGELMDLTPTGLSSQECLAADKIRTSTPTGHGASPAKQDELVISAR

FAAH = conditions: cited from earlier work
hDAGLα [2] = molecular target: T1, hDAGLα; conditions: cited from earlier work
mDAGLβ = molecular target: T2, mDAGLβ (Mus musculus, UniProt Q91WC9); assay: Radio-TLC assay of mDAGLβ inhibition with [14C]SAG substrate; assay type: biochemical, murine
T2 sequence (Q91WC9 1-669): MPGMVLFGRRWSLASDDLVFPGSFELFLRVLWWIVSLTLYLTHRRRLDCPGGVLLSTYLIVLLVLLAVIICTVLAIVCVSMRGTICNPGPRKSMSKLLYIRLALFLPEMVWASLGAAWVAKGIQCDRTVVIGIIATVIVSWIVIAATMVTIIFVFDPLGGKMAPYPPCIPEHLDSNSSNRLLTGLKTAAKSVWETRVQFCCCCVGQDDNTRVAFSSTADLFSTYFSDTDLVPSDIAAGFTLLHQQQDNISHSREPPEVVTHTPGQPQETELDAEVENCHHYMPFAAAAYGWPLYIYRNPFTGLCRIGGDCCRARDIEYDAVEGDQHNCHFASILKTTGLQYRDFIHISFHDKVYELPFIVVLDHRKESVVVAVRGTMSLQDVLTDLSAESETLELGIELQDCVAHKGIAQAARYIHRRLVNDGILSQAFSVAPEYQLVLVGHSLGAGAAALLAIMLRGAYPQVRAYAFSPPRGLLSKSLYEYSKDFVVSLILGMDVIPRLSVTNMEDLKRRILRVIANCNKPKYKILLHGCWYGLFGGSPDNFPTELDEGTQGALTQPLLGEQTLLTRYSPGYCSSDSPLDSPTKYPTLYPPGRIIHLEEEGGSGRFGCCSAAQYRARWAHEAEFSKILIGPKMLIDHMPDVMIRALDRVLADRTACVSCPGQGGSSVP

[3] = molecular target: CB1 (rat brain preparation) (Rattus norvegicus, UniProt P20272); assay: Cannabinoid receptor competition binding, CB1
Sequence of CB1 (rat brain preparation) (P20272 whole entry): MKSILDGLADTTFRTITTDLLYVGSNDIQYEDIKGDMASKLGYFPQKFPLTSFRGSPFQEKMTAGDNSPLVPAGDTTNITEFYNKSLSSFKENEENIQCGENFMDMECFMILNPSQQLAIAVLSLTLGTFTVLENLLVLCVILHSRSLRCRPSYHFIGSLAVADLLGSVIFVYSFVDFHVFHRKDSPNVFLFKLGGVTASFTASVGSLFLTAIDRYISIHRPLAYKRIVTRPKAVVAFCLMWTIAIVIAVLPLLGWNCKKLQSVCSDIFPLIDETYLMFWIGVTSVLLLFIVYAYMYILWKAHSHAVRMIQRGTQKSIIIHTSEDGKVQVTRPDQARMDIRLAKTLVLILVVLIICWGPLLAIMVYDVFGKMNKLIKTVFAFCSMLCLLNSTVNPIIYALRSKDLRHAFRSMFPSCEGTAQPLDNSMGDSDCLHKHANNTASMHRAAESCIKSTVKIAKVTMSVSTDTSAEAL

hDAGLα [4] = molecular target: T1, hDAGLα; assay: In vitro FRET-based DAGL assay with reporter compound 17; assay type: biochemical
[5] = molecular target: T3, Pancreatic Lipase (Porcine) (Sus scrofa, UniProt P00591); assay: In vitro FRET-based pancreatic lipase assay with reporter compound 17; assay type: biochemical; conditions: preliminary studies, substrate 17
T3 sequence (P00591 1-450): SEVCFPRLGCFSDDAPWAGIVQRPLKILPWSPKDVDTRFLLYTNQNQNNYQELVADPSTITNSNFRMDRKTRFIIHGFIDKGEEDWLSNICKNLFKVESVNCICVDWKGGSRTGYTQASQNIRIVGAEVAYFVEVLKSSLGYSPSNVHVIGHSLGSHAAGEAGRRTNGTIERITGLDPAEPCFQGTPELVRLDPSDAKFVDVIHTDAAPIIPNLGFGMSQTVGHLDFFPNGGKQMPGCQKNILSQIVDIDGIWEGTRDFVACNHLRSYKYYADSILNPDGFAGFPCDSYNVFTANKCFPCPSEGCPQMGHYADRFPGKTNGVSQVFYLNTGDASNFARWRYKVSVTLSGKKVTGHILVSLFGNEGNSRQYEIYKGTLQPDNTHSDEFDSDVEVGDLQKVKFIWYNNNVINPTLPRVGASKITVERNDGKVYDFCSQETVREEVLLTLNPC

[6] = tested on: Lipoprotein Lipase (Bacterial); assay: In vitro FRET-based lipoprotein lipase assay with reporter compound 17; assay type: biochemical, Pseudomonas sp.

| SMILES | binding to the cannabinoid receptors, previous reports (in words) (cannabinoid receptors) | inhibition of hDAGLα in radio-TLC assays (in words) (hDAGLα [1]) | reported inhibition of FAAH activity (in words) (FAAH) | reported inhibition of DAGL activity (in words) (hDAGLα [2]) | inhibition of hDAGLα activity at 10 μM (in words) (hDAGLα [1]) | binding to the cannabinoid receptors (in words), CB1 [3] | other results |
| --- | --- | --- | --- | --- | --- | --- | --- |
| O=C(Oc1ccc([N+](=O)[O-])cc1)N1CCC(C(O)(c2ccc3c(c2)OCO3)c2ccc3c(c2)OCO3)CC1 [JZL184] | did not bind | poor inhibitors | poor inhibitors | poor inhibitors | – | – | – |
| NC(=O)c1cccc(-c2cccc(OC(=O)NC3CCCCC3)c2)c1 [URB597] | did not bind | – | – | – | – | – | – |
| O=C(N[C@H]1COC1=O)OCc1ccccc1 [SD41] | – | – | – | – | did not inhibit | did not bind | inhibition of mDAGLβ at 10 μM screening concentration (in words) (mDAGLβ): did not inhibit |
| O=C(NCCCCCCNC(=O)ON=C1CCCCC1)ON=C1CCCCC1 [RHC80267 (1), RHC80267] | – | poor inhibitors | poor inhibitors | poor inhibitors | – | did not bind | hDAGLα inhibition at 10 μM detergent free (%) (hDAGLα [4]): 40 ^* % |
| CCCCCCCCCCC[C@@H](C[C@@H]1OC(=O)[C@H]1CCCCCC)OC(=O)[C@H](CC(C)C)NC=O [3 (THL), tetrahydrolipstatin] | – | – | – | – | complete inhibition | – | inhibition of porcine triacylglycerol lipase (in words) [5]: potent inhibition; inhibition of bacterial lipoprotein lipase (in words) [6]: potent inhibition; IC50 ([6]; read-out: apparent IC50 with lipoprotein lipase in FRET assay): ~100 nM |
| O=S(=O)(F)Cc1ccccc1 [PMSF, phenylmethylsulfonylfluoride] | – | poor inhibitors | poor inhibitors | poor inhibitors | – | – | effect on / reaction with DAGL (in words) (hDAGLα [2]): not affected |
